According to US4740233A, “Substituted 1,2,4-triazolo[1,5-a]-pyrimidine-2-sulfonamides and compositions and methods of controlling undesired vegetation and suppressing the nitrification of ammonium nitrogen in soil” (The Dow Chemical Company, priority 1986, dated 1988):

What was measured:
Assay in all cases: Preemergent control of plant species
corn = assay type: in vivo, Zea mays; conditions: Zea mays, pre-emergence, 336 h; 0.25 lb/acre; read-out: percent preemergent control
Procedure, shortened: (§1)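 Test compositions were applied evenly to the surface of freshly seeded soil beds and kept under greenhouse conditions for two weeks. Percent control reflects growth reduction compared with water-treated beds of the same species.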

rice = assay type: in vivo, Oryza sativa; conditions: Oryza sativa, pre-emergence, 336 h; 0.25 lb/acre; read-out: percent preemergent control
Procedure, shortened: as §1

johnson grass = assay type: in vivo, Sorghum halepense; conditions: Sorghum halepense, pre-emergence, 336 h; 0.25 lb/acre; read-out: percent preemergent control
Procedure, shortened: as §1

yellow nutsedge = assay type: in vivo, Cyperus esculentus; conditions: Cyperus, pre-emergence, 336 h; 0.25 lb/acre; read-out: percent preemergent control
Procedure, shortened: as §1

velvetleaf = assay type: in vivo, Abutilon theophrasti; conditions: Abutilon theophrasti, pre-emergence, 336 h; 0.25 lb/acre; read-out: percent preemergent control
Procedure, shortened: as §1

wheat = assay type: in vivo, Triticum aestivum; conditions: Triticum aestivum, pre-emergence, 336 h; 0.25 lb/acre; read-out: percent preemergent control
Procedure, shortened: as §1

jimsonweed = assay type: in vivo, Datura stramonium; conditions: Datura stramonium, pre-emergence, 336 h; 0.25 lb/acre; read-out: percent preemergent control
Procedure, shortened: as §1

annual morning glory = assay type: in vivo, Ipomoea spp.; conditions: Ipomoea, pre-emergence, 336 h; 0.25 lb/acre; read-out: percent preemergent control
Procedure, shortened: as §1

rape = assay type: in vivo, Brassica napus; conditions: Brassica napus, pre-emergence, 336 h; 0.25 lb/acre; read-out: percent preemergent control
Procedure, shortened: as §1

sorghum = assay type: in vivo, Sorghum vulgare; conditions: Sorghum, pre-emergence, 336 h; 0.25 lb/acre; read-out: percent preemergent control
Procedure, shortened: as §1

sugar beet = assay type: in vivo, Beta saccharifera; conditions: Beta vulgaris, pre-emergence, 336 h; 0.25 lb/acre; read-out: percent preemergent control
Procedure, shortened: as §1

cotton = assay type: in vivo, Gossypium spp.; conditions: Gossypium hirsutum, pre-emergence, 336 h; 0.25 lb/acre; read-out: percent preemergent control
Procedure, shortened: as §1

wild oats = assay type: in vivo; conditions: Avena fatua, pre-emergence, 336 h; 0.25 lb/acre; read-out: percent preemergent control
Protocol: The seeds of various species of plants were planted in beds of good agricultural soil in a greenhouse. A number of compositions of the present invention, generally in the nature of an aqueous emulsion, were applied at rates listed in the table so as to deposit a predetermined amount of active ingredients uniformly throughout the surface of the bed. Another seed bed was treated only with water to serve as a control. After treatment the seed beds were maintained for two weeks under greenhouse conditions conducive for good plant growth and watered as necessary. Control refers to the reduction in growth compared to the observed results of the same untreated species.

barnyardgrass = assay type: in vivo, Echinochloa crusgalli; conditions: Echinochloa crus-galli, pre-emergence, 336 h; 0.25 lb/acre; read-out: percent preemergent control
Procedure, shortened: as §1

soybean = assay type: in vivo, Glycine max.; conditions: Glycine max, pre-emergence, 336 h; 0.25 lb/acre; read-out: percent preemergent control
Procedure, shortened: as §1

yellow foxtail = assay type: in vivo, Setaria lutescens; conditions: Setaria, pre-emergence, 336 h; 0.25 lb/acre; read-out: percent preemergent control
Procedure, shortened: as §1

| Structure (SMILES) | plant injury at 280.212 g/ha (corn) | plant injury at 280.212 g/ha (rice) | pest or weed control at 280.212 g/ha (johnson grass) | pest or weed control at 280.212 g/ha (yellow nutsedge) | pest or weed control at 280.212 g/ha (velvetleaf) | plant injury at 280.212 g/ha (wheat) | pest or weed control at 280.212 g/ha (jimsonweed) | pest or weed control at 280.212 g/ha (annual morning glory) | plant injury at 280.212 g/ha (rape) | plant injury at 280.212 g/ha (sorghum) | plant injury at 280.212 g/ha (sugar beet) | plant injury at 280.212 g/ha (cotton) | pest or weed control at 280.212 g/ha (wild oats) | pest or weed control at 280.212 g/ha (barnyardgrass) | plant injury at 280.212 g/ha (soybean) | pest or weed control at 280.212 g/ha (yellow foxtail) |
| --- | --- | --- | --- | --- | --- | --- | --- | --- | --- | --- | --- | --- | --- | --- | --- | --- |
| Cc1ccn2nc(S(=O)(=O)N(C(=O)c3ccccc3)c3c(Cl)cccc3Cl)nc2n1 [Compound 274, 5-methyl-N-benzoly-N-(2,6-dichlorophenyl)-1,2,4-triazolo[1,5-a]pyrimidine-2-sulfonamide] | 60% | 80% | 70% | 100% | 100% | 0% | 90% | 80% | 100% | 90% | 100% | 95% | 0% | 80% | 0% | 95% |
| Cc1ccn2nc(S(=O)(=O)N(C(=O)CCCl)c3c(F)cccc3F)nc2n1 [Compound 282] | 95% | 100% | 100% | 100% | 100% | 70% | 100% | 80% | 100% | 100% | 100% | 100% | 100% | 70% | 50% | 100% |
| Cc1ccn2nc(S(=O)(=O)N(C(=O)CC(C)C)c3c(F)cccc3F)nc2n1 [Compound 284] | 85% | 100% | 100% | 100% | 100% | 100% | 100% | 80% | 100% | 100% | 100% | 100% | 90% | 100% | 20% | 100% |
| CC=CC(=O)N(c1c(F)cccc1F)S(=O)(=O)c1nc2nc(C)ccn2n1 [Compound 288] | 80% | 100% | 100% | 100% | 100% | 60% | 100% | 100% | 100% | 100% | 100% | 100% | 90% | 100% | 40% | 100% |
| Cc1ccn2nc(S(=O)(=O)N(C(=O)c3ccccc3)c3c(F)cccc3F)nc2n1 [Compound 290] | 90% | 100% | 100% | 80% | 100% | 95% | 100% | 100% | 100% | 100% | 100% | 100% | 70% | 100% | 70% | 100% |
| Cc1ccn2nc(S(=O)(=O)N(C(=O)C3CCCCC3)c3c(F)cccc3F)nc2n1 [Compound 291] | 55% | 100% | 100% | 100% | 100% | 100% | 100% | 90% | 100% | 100% | 100% | 100% | 70% | 100% | 20% | 100% |
